# Reference: patent publication US20130064815A1, “INDUCING APOPTOSIS IN QUIESCENT CELLS” (THE TRUSTEES OF PRINCETON UNIVERSITY, priority 2011, published 2013)
# Key:
# [1] = system: primary human fibroblasts; test: caspase 3/7 activity apoptosis assay (ApoTox-Glo) in proliferating and quiescent fibroblasts; assay type: cell-based; details: for effect on MG132-induced apoptosis: 2-ME with increasing MG132
# Method: Referring to FIG. 2A, primary human fibroblasts were tested either in a proliferating state or after being induced into quiescence. Quiescence may be induced by either contact inhibition or serum starvation. Cells were treated with DHEA for four days, with bafilomycin added on the fourth day. Apoptosis was assessed based on the activity of caspase 3/7 for a fluorogenic substrate.
# PPP inhibition and apoptosis analysis: Apoptosis was measured based on the levels of caspase 3/7 released into the media using the ApoTox-Glo Triplex Assay according to the manufacturer's instructions (Promega Corp., Madison, Wis.). Cells were plated in triplicate at 10,000 cells per well in white-walled, clear-bottom 96-well plates (Costar, Corning Life Sciences, Lowell, Mass.). For contact inhibition, cells were plated 7 days prior to the start of treatment, for serum starvation cells were plated 4 days prior to treatment and switched to 0.1% serum media for the remaining 3 days, while proliferating cells were plated the day prior to the start of treatment. […] Cells in serum starvation conditions were incubated in 0.1% serum during treatment as well. The apoptosis reagent was added at 100 μl per well and incubated for 1 h prior to reading. Luminescence was read from the top using a Synergy-2 plate reader (Biotek, Winooski, Vt.). Luminescence data were normalized to the vehicle only condition.
# Apoptosis induction was assessed by monitoring caspase 3/7 activity using a luminescent caspase substrate. This assay is optimized for high-throughput screening in 96-well plates and allows multiple concentrations and combination of drugs to be tested in triplicate at different time points. […] Therefore, this assay was used to compare proliferating and serum-starved cells only.
# [2] = system: LC3-II; test: LC3-II immunoblot (autophagy / autophagic flux); assay type: cell-based, human
# Method: (§1) The levels of autophagy components—Atg5/Atg12, Atg7, Atg3, and LC3-I and LC3-II—were monitored in proliferating and contact-inhibited fibroblasts using immunoblotting (FIG. 21A). As a positive control for autophagy induction, samples of cells in each cell cycle state were also incubated in Kreb's Ringer Bicarbonate solution (KRB), a protocol that induces autophagy through amino acid starvation and elimination of other nutrients except glucose. Levels of Atg5/Atg12, Atg7, and LC3-II were elevated in all of the amino acid starvation and contact-inhibition states as compared to the proliferating state (FIG. 21A). Atg3 was induced in all quiescent states compared with proliferating states, including amino acid starvation. In order to differentiate whether the high levels of autophagy proteins resulted from a blockade of autophagy degradation or active flux through the pathway, we monitored the levels of LC3-II in proliferating and 7 dCI fibroblasts in the presence of bafilomycin A1 (Baf-A1). Baf-A1 is a vacuolar-type H^+-ATPase inhibitor that prevents autophagosome fusion with the lysosome due to an increase in lysosomal pH. […] This finding is consistent with active autophagic flux in quiescent fibroblasts
# In addition to its role in providing amino acids and energy under starvation conditions, autophagy is involved in maintenance of cellular homeostasis and resistance to tumorigenesis through degradation of old or damaged proteins and entire organelles. It was hypothesized that autophagy in contact-inhibited cells could function to degrade old and/or damaged proteins that would otherwise accumulate in the cytoplasm due to lack of cell division as a mechanism for dilution of these proteins. Oxidation of proteins causes the formation of carbonyl groups on amino acids, and carbonylation can disrupt protein function. To monitor the extent of protein oxidation in proliferating and contact-inhibited fibroblasts, the protein carbonyl groups were derivatized using 2,4-dinitrophenylhydrazine (DNP), and monitored using immunoblotting with an antibody that recognizes the covalently added DNP. The levels of oxidized proteins in proliferating and 7 dCI fibroblasts were monitored in cells that were either competent to perform autophagy (control), or were stably expressing an shRNA against the essential autophagy components Atg5 (sh-Atg5) or Atg7 (sh-Atg7), which are known to represent autophagy-defective phenotypes in other model systems. […] In contact-inhibited fibroblasts, in contrast, the levels of oxidized proteins increased 1.5-fold±0.1 in 7 dCI sh-Atg5 fibroblasts as compared to vector control counterparts (p=0.009) (FIG. 22B). […]
# To test this hypothesis, the levels of an autophagy-specific form of the LC3 protein, LC3 II, were monitored compared to a housekeeping protein (Klionsky et al., 2008, “Guidelines for the use and interpretation of assays for monitoring autophagy in higher eukaryotes,” Autophagy 4, 151-175, which is incorporated herein by reference as if fully set forth). […]
# We observed an increase in the ratio of LC3 II to GAPDH in response to MG132 treatment for cells in proliferating, contact-inhibited and serum-starved states (FIG. 25B). To test whether the high levels of LC3 II in quiescent cells in response to MG132 treatment result from a blockade of autophagy degradation or from active flux through the pathway, LC3 II levels were monitored in proliferating and quiescent fibroblasts treated with MG132 in the presence or absence of bafilomycin A1 (Baf). […]
# [3] = system: p62/SQSTM1; test: p62 immunoblot (autophagic flux); assay type: cell-based, human; details: contact-inhibited (7 dCI) fibroblasts vs proliferating or vehicle/non-treated controls
# Method: as §1
# [4] = system: four day serum starved fibroblasts; test: induction of apoptosis in quiescent fibroblasts by DHEA and/or autophagy inhibitor combined with proteasome inhibitors; assay type: cell-based, human; details: proteasome inhibitor alone; four day serum starved fibroblasts
# Method: Referring to FIG. 17, the effect of treatment using DHEA and/or an autophagy inhibitor combined with proteasome inhibitors on apoptosis in quiescent cells was analyzed.
# In this experiment, the proteasome inhibitor, bortezomib, was used in varying concentrations with DHEA during a 48 hour treatment.
# [5] = system: tumor cells; details: intraperitoneal injection of tumor cells; cited from earlier work
# [6] = system: proliferating and quiescent fibroblasts; test: annexin V / PI flow cytometry after proteasome inhibition; assay type: cell-based, human; details: 24 hours
# Method: To elucidate the responses of proliferating and quiescent fibroblasts to proteasome inhibition, the effects of known proteasome inhibitors on proliferating and quiescent fibroblasts were examined.
# At the highest dose (10 μM), approximately 50% of proliferating cells were apoptotic (FIG. 24A-lower right (Q4), upper right (Q2), and upper left (Q1) quadrants represent early apoptosis, late apoptosis, and very late apoptosis or necrosis, respectively). In comparison, quiescent fibroblasts were largely unaffected by MG132 treatment, showing far lower levels of apoptosis.
# [7] = system: skin papillomas and carcinomas; details: cited from earlier work; for skin papilloma development: mouse
# [8] = system: breast cancer cell lines; details: cited from earlier work
# [9] = system: neoplasms, lymphoblastic lymphoma; details: p53-deficient mouse; cited from earlier work
smiles,measurement,setting,value
"CO/C1=C\C(C)=C\[C@@H](C)[C@@H](O)[C@@H](C)C/C(C)=C/C=C/[C@H](OC)[C@@H]([C@@H](C)[C@@H](O)[C@H](C)[C@@]2(O)C[C@@H](O)[C@H](C)[C@@H](C(C)C)O2)OC1=O [Baf, bafilomycin A1]",effect on MG132-induced caspase 3/7 activity,"[1]; 100 nM Baf, proliferating cells, 24 hours post treatment",slight reduction
same,effect on MG132-induced apoptosis (caspase 3/7),"[1]; 100 nM Baf, proliferating fibroblasts, 48 hours post treatment",no significant effect
same,effect on MG132-induced apoptosis (caspase 3/7),"[1]; 100 nM Baf, serum-starved fibroblasts",strongly enhanced
same,effect on bortezomib-induced caspase 3/7 activity,"[1]; proliferating fibroblasts, 24 hours post treatment",reduced
same,effect on bortezomib-induced caspase 3/7 activity,"[1]; proliferating fibroblasts, after 48 hours",little effect
same,induction of apoptosis in the presence of Baf vs MG132 alone,"[1]; serum-starved fibroblasts, 48 hours, 10 μM MG132",more than doubled
same,LC3 II to GAPDH ratio vs MG132 alone,"[2]; Baf combined with MG132, serum-starved cells",did not change
same,LC3 II to GAPDH ratio vs MG132 alone,"[2]; Baf in conjunction with MG132, proliferating and contact-inhibited cells",further increase
same,ratio of LC3 II to GAPDH,[2]; Baf-treated proliferating and quiescent cells,increase
same,levels of LC3-II,[2]; contact-inhibited (7 dCI) fibroblasts vs proliferating or vehicle/non-treated controls,further increase
same,levels of p62/SQSTM1,[3],further increase
CC(C)C[C@H](NC(=O)[C@H](Cc1ccccc1)NC(=O)c1cnccn1)B(O)O [bortezomib],induction of apoptosis (caspase 3/7),"[1]; bortezomib, serum-starved compared to proliferating fibroblasts",relatively low
same,apoptotic induction,[4],did not result in apoptotic induction
Cc1ncc(C[n+]2csc(CCO)c2C)c(=O)[nH]1 [oxythiamine],tumor growth,[5],inhibit tumor growth
"COc1cc2c(cc1O)CC[C@@H]1[C@@H]2CC[C@]2(C)[C@@H](O)CC[C@@H]12 [2-ME, 2-methoxyestradiol]",effect on MG132-induced apoptosis,[1]; proliferating fibroblasts,little effect
same,effect on MG132-induced apoptosis,[1]; serum-starved fibroblasts,sensitized
CCN(CCO)CCCC(C)Nc1ccnc2cc(Cl)ccc12 (stereo not drawn) [hydroxychloroquine],induction of apoptosis,"[1]; serum starved fibroblasts, FIG. 2B",induction of apoptosis
CC[C@H](C)[C@H](NC(=O)[C@H]([C@@H](C)CC)N(C)C(C)=O)C(=O)N[C@H](C(=O)N[C@@H](CC(C)C)C(=O)[C@@]1(C)CO1)[C@@H](C)O [epoxomicin],reduction of viability of proliferating cells,[6]; 1 μM,~50%
same,proliferating cell viability (fraction PI negative),[6]; proliferating cells,"statistically significant, dose-dependent decrease"
same,quiescent cell viability,"[6]; quiescent cells, up to 10 μM MG132, 1 μM epoxomicin",maintained high viability
C[C@H]1CC[C@@]2(C)C(=CC[C@@H]3[C@@H]2CC[C@]2(C)C(=O)CC[C@@H]32)C1 [3-β-methylandrost-5-en-17-one],skin papilloma development,[7],inhibits skin papilloma development
same,development of skin papillomas and carcinomas,"[7]; topical 7,12-dimethylbenz(a)anthracene (DMBA), mice",even more potent chemopreventive effect
FC(F)(F)c1ccc2c(N3CCN(CCCNc4ccnc5cc(Cl)ccc45)CC3)ccnc2c1 [7-chloro-N-(3-(4-(7-trifluoromethyl)quinolin-4-yl)piperazin-1-yl)propyl)quinolin-4-amine],antiproliferative effects,[8],very effective
FC(F)(F)c1ccc2c(NCCCN3CCN(c4ccnc5cc(Cl)ccc45)CC3)ccnc2c1 [{3-[4-(7-chloro-quinolin-4-yl)-piperazin-1-yl]-propyl}-(7-rifluoromethyl-quinolin-4-yl)-amine],antiproliferative effects,[8],very effective
C[C@]12CCCCC1=CC[C@@H]1[C@@H]2CC[C@]2(C)C(=O)[C@H](F)C[C@@H]12 [16α-fluoro-5-androsten-17-one],skin papilloma development,[7],effective in inhibiting skin papilloma development
same,death due to neoplasms,[9],delay death due to neoplasms
C[C@]12CCCC[C@@H]1CC[C@@H]1[C@@H]2CC[C@]2(C)C(=O)[C@H](F)C[C@@H]12 [16a-fluoro-5a-androstan-17-one],skin papilloma development,[7],effective in inhibiting skin papilloma development
